From patent US20230242474A1, “LIPID COMPOUND AND THE COMPOSITION THEREOF” (GUANGZHOU RIBOBIO CO., LTD, priority 2020, published 2023)
“And” between values parts separate entries of the source, which are not always exact repeats. Identical values can stand only once. Like-named read-outs stand apart in the source and are kept apart here.

Legend:
[1] = format: physicochemical
[2] = system: BALB/c mice; assay: Transfection efficiency: in vivo bioluminescence of luciferase mRNA encapsulated by different LNP; conditions: for Average fluorescence intensity, Leg (intramuscular injection) / Average fluorescence intensity, Liver (tail vein injection): 10 μg/mice; for Total photons number, Leg: intramuscular injection
Method: All animals were kept in adaptive feeding for more than 7 days before experiments, free to uptake food and drink water during experimental period, illumination 12/12 h alternating light and dark, room temperature was 20-26° C., humidity was 40-70%.
Experimental method: female BALB/c mice, encapsulated luciferase mRNA with different LNP by four different administrations which included subcutaneous injection (under the armpit), tail vein injection, intraperitoneal injection, intramuscular injection (the tibialis anterior muscle of mouse hind leg); 3, 6, 24, 48 h after administration, applied in vivo fluorescence imaging system (brand: Bruker, model: XTREME) for bioluminescence detection, the specific steps were as follows: substrate preparation: took appropriate amount of substrate Luciferin (brand: Promega) and added saline to make a 10 mg/ml solution, avoided light, injected 100 μl solution into each mouse intraperitoneally. […] Put the anesthetized mouse into machine, set the bioluminescence setting and took the photos, captured the photograph and then adjusted the upper and lower values of photograph, then collected data on the concentrated distribution of fluorescence (e.g., fluorescence intensity, average photons number, and total photons number) and processed data. Statistical analysis: the in vivo imaging outcome were shown in the fluorescence intensity or average of total photons number of different animal in the same tested group, which were used to judge whether the fluorescence intensity or total photon number of luciferase mRNA encapsulated by different LNP were high or low.
The fluorescence intensity and total photons number reflects the transfection efficiency of LNP, the value is higher, referring to the efficiency of delivering encapsulated substance into cell by LNP is higher.

[3] = system: T lymphocytes secreting INFγ; assay: ELISPOT count of T lymphocytes secreting INFγ after immunization with LNP-encapsulated SARS-CoV-2 S protein mRNA; format: in vivo, BALB/c mice; conditions: S protein (1 μg) stimulation, intramuscular Day 0 and Day 14, spleens after 7 days
[4] = system: S protein specific IgG antibody; format: in vivo, BALB/c mice; conditions: 14 days after the second immunization, LNP with S protein mRNA, FIG. 5
[5] = LNP with SARS-CoV-2 S protein mRNA, Table 9
[6] = lipid nanoparticle of the ionizable lipid (ionizable lipid/phospholipid/PEG lipid/structural lipid 50/10/1.5/38.5 %) with mRNA, Table 1
[7] = lipid nanoparticle of the ionizable lipid with mRNA, Table 1

Row | SMILES | Average fluorescence intensity, Leg (intramuscular injection) ([2]; 3 h after administration) | Average fluorescence intensity, Liver (tail vein injection) ([2]; 3 h after administration) | Average fluorescence intensity, Leg (intramuscular injection) ([2]; 6 h after administration) | Average fluorescence intensity, Liver (tail vein injection) ([2]; 6 h after administration) | Average fluorescence intensity, Leg (intramuscular injection) ([2]; 24 h after administration) | Average fluorescence intensity, Liver (tail vein injection) ([2]; 24 h after administration) | Total photons number, Leg ([2]; 1 μg/ mice, 3 h) | Total photons number, Leg ([2]; 1 μg/ mice, 6 h) | Total photons number, Leg ([2]; 1 μg/ mice, 24 h) | Size (nm) [1, 6] [nm] | Encapsulated percentage (%) [1, 7] [%] | PDI [1, 7] | also measured
1 | CCCCCCCCCCCOC(=O)CCCCCN(CCO)CCCCCCCC(=O)OC(CCCCCCCC)CCCCCCCC [A33, reference compound] | 1065.5 | 2841.8 | 1117.9 | 3144.6 | 418.8 | 100.0 | 1.41E+08 | 2.35E+08 | 5.84E+07 |  |  |  | Encapsulated percentage (%) [1, 5]: 95%; PI [1, 5]: 0.104; Size (nm) [1, 5]: 76 nm; Total photons number, Leg ([2]; 5 μg/mice, 3 h): 5.20E+08; Total photons number, Leg ([2]; 5 μg/mice, 6 h): 4.62E+08; Total photons number, Leg ([2]; 5 μg/mice, 24 h): 1.63E+08; Elispot counted T lymphocytes secreting INFγ ([3]; dose 4 μg): 32 and 42; Elispot counted T lymphocytes secreting INFγ ([3]; dose 50 μg): 310 and 338; S protein specific IgG antibody titer [4]: higher titers of IgG antibodies
2 | CCCCCCCCCCCOC(=O)CCCCCN(CCCO)CCCCCCCC(=O)OC(CCCCCCCC)CCCCCCCC [A4, reference compound] | 1847.5 | 7962.6 | 1956.2 | 7745.9 | 1009.7 | 326.4 |  |  |  | 131.1 | 79.24 | 0.110 | 
3 | CCCCC/C=C/C/C=C/CCCCCCCCN(CCCO)CCCCCCCC(=O)OC(CCCCCCCC)CCCCCCCC [A7] | 1683.2 | 21013.1 | 2990.1 | 21315.5 | 1436.4 | 444.2 |  |  |  | 105.1 | 94.63 | 0.175 | Encapsulated percentage (%) [1, 5]: 97%; PI [1, 5]: 0.060; Size (nm) [1, 5]: 79 nm; Elispot counted T lymphocytes secreting INFγ ([3]; dose 50 μg): 805 and 700; S protein specific IgG antibody titer [4]: higher titers of IgG antibodies
4 | CCCCCCCCC(CCCCCCCC)OC(=O)CCCCCCCN(CCCO)CCCCCCCC(=O)OC(CCCCCCCC)CCCCCCCC [A5] | 675.7 | 2231.2 | 1566.4 | 3738.2 | 892.2 | 73.5 |  |  |  | 135.0 | 90.11 | 0.090 | 
5 | CCCCCCCCCCCCCCCCN(CCO)CCCCCC(=O)OCCCCCCCCCCC [A1] | 61.3 | 20.4 | 80.6 | 27.80 | 38.9 | 15.9 |  |  |  | 127.7 | 88.79 | 0.090 | 
6 | CCCCC/C=C/C/C=C/CCCCCCCCN(CCCO)CCCCCC(=O)OCCCCCCCCCCC [A12] |  |  |  |  |  |  |  | 6.91E+08 |  | 119.3 | 86.53 | 0.083 | 
7 | CCCCCCOCC(COCCCCCC)OC(=O)CCCCCCCN(CCCCCCCC(=O)OC(COCCCCCC)COCCCCCC)CCCNc1c(NC)c(=O)c1=O [A28] |  |  |  |  |  |  | 6.50E+08 | 4.26E+08 | 1.83E+08 | 91.19 | 89.72 | 0.13 | 
8 | CCCCC/C=C/C/C=C/CCCCCCCCN(CCO)CCCCCC(=O)OCCCCCCCCCCC [A9] | 461.4 | 198.9 | 432.0 | 252.7 | 178.3 | 14.6 |  |  |  | 129.4 | 93.35 | 0.120 | 
9 | CCCCCCOCC(COCCCCCC)OC(=O)CCCCCCCN(CCCO)CCCCCCCC(=O)OC(COCCCCCC)COCCCCCC [A19] |  |  |  |  |  |  | 3.69E+09 | 4.77E+09 | 7.33E+08 | 110.1 | 88.00 | 0.0923 | 
10 | CCCCCCCCCCCOC(=O)CCCCCN(CCCCCCCC(=O)OC(COCCCCCC)COCCCCCC)CCCNc1c(NC)c(=O)c1=O [A27] |  |  |  |  |  |  | 1.34E+09 | 1.04E+09 | 3.41E+08 | 94.16 | 96.69 | 0.13 | 
